Data published in patent US7074825B2, “Composition and method for treating cancer” (priority 2002, dated 2006).
Several values for one entry are separate records, joined by “and”; a condition that tells them apart may be missing. Equal values may be shown once. Read-outs that look alike come from different tables or passages of the source.

What was measured:
[1] = test system: B16 cancer cell cultures; assay: Cell phase distribution by flow cytometry (propidium iodine), B16; type: cell-based; settings: genistein 5 μM, lovastatin 0.5 μM, geranyl anthranilate 30 μM, alone or all three together; for G2 phase cells: control 12.7%; for S phase cells: control 22.5%; for G1 phase cells: control 64.9%
Text: (§1) Subsequent to the treatment of the cancer cells with these HGM-CoA reductase inhibitors, the cells were fixed in ethanol, treated with RNase and stained with propidium iodine. Fluorescent measurements were then made via a flow cytometer using a laser. A double discriminator was used as the primary gate to eliminate cell aggregates. The distribution profiles associated with the various phases (G1, S) were then obtained through the use of least squares fits of the frequency emission spectra.

[2] = test system: B16 melanoma cells; assay: B16 melanoma cell proliferation (cell count / CellTiter 96); settings: for Growth (average percent cell survival relative to the control group after 72 h exposure period): geranyl anthranilate 30 μM, alone or all three together; for Observed Growth (empirical percentage survival): 40 hour exposure
Method: B16 melanoma cells were grown in monolayer culture (35×10 mm flasks) in 3 ml RPMI 1640 medium supplemented with 10% fetal bovine serum (FBS) and 80 mg gentamicin/L. The cultures, seeded with 3.3×10^4 cells/mL, were incubated for 24 h at 37° C. in a humidified atmosphere of 5% CO2. The medium was decanted and replaced with fresh medium containing the test agents. Tocotrienol, perillyl alcohol, and geranyl- or farnesyl-hydroquinone ethers were dissolved in ethanol; and lovastatin and genistein were dissolved in dimethyl sulfoxide, DMSO. The incubations were continued for an additional 48 h. All cultures contained 1 ml/L each of ethanol and DMSO. The medium and detached cells were decanted, the monolayer was washed twice with Hanks' Balanced Salt Solution (HBSS) and then incubated with a trypsin-EDTA solution at 37° C. for 2 min. Trypsin was inactivated by suspending the cells in medium containing 10% FBS. The trypsinized cells were pelleted at 250 xg and resuspended in HBSS. Viable cells, cells that excluded 0.4% trypan blue were counted with a hemocytometer; 24-h cell counts were deducted from final cell counts to provide an estimate of the net increase in cell number.
Measurement of B16 cell proliferation was confirmed by using CellTiter 96, Aqueous One Solution (Promega). Seeding density was determined in the following pilot test. B16 cells were maintained in monolayer culture (96-well tissue culture plate) in 0.1 mL of the medium described above. Cultures, seeded in escalating densities (0-8000 cells/well with a 500-cell interval), were incubated for 72 h at 37° C. in a humidified atmosphere of 5% CO2. At 24 h the medium was decanted from each well and replaced with 0.1 mL fresh medium. The 72-h cell populations were determined by adding 20 μl of CellTiter 96, Aqueous One Solution to each well; the plate was held in dark at 37° C. for 2 h and then read at 490 nm with a SPECTRAmax, 190 multi-plate reader with SOFTmax, PRO version 3.0 (Molecular Devices). Cell survival data were assessed as absorbance versus cell seeding density. The absorbance has a linear correlation with cell seeding density up to 2000 B16 cells/well. The midpoint of cell inoculation density, 1000 cells/well, was chosen for B16 cell proliferation assay. This procedure of determining seeding density also applies to all other cell lines in which the CellTiter 96, Aqueous One Solution was used for proliferation assay. In the proliferation assay, B16cells were incubated in 96-well plates for 24 h. The medium was decanted from each well and replaced with 0.1 mL fresh medium containing the test agents. Incubation continued for an additional 48 h. Cell populations of all wells were determined according to CellTiter 96 procedure as described above. Cell proliferation represents the net absorbance, the difference in absorbance between final and 24-h measurements.

[3] = test system: Human DU145 prostate carcinoma cells; assay: DU145 cell proliferation, CellTiter 96, 72 h exposure; type: cell-based; settings: for Growth (average percent cell survival relative to the control group after 72 h exposure period) / Absorbance (net absorbance at 490 nm, net growth after 72 h) / Growth (average percent cell survival relative to the control group): DU145; for Growth (average percent cell survival relative to the control group after 72 h exposure period): lovastatin […], alone or all three together; for IC50: DU145 cells, estimated, read-out: IC50 (suppression of proliferation)
Method: (§2) Seeding density was determined in the following pilot test. […] Incubation continued for an additional 48 h.
(§3) Incubation continued for additional 72 h.

[4] = test system: Human PC-3 prostate adenocarcinoma cells; assay: PC-3 cell proliferation, CellTiter 96, 72 h exposure; type: cell-based; settings: for Growth (average percent cell survival relative to the control group): PC3; for Absorbance (net absorbance at 490 nm, net growth after 72 h): PC-3; for IC50: PC-3 cells, estimated, read-out: IC50 (suppression of proliferation)
Method: as §2, §3

[5] = test system: Human LNCaP prostate carcinoma cells; assay: LNCaP cell proliferation, CellTiter 96, 72 h exposure; type: cell-based
Method: as §2, §3

[6] = test system: DU145 cancer cell cultures; assay: Cell phase distribution by flow cytometry (propidium iodine), DU145; type: cell-based, Human; settings: genistein 10 μM, lovastatin […], γ-tocotrienol 5 μM, alone or all three together; for G2 phase cells: control 11.6%; for G1 phase cells: control 65.4%; for S phase cells: control […]
Text: as §1

[7] = genistein 5 μM, lovastatin 0.5 μM
[8] = genistein 10 μM, γ-tocotrienol 5 μM
[9] = perillyl alcohol 800 μM, negative = cell killing

CC(C)=CCC/C(C)=C/COC(=O)c1ccccc1N [Geranyl Anthranilate, geranyl anthranilate]
G2 phase cells [1]: 9.8%
S phase cells [1]: 22.9%
G1 phase cells [1]: 67.3%
Growth (average percent cell survival relative to the control group after 72 h exposure period) [2, 7]: 81%

γ-tocotrienol
Growth (average percent cell survival relative to the control group after 72 h exposure period) [3, 8]: 87%
Absorbance (net absorbance at 490 nm, net growth after 72 h) ([3]; γ-tocotrienol 5 μM): 0.39
Growth (average percent cell survival relative to the control group) ([3]; γ-tocotrienol 5 μM): 87%
Absorbance (net absorbance at 490 nm, net growth after 72 h) ([3]; γ-tocotrienol 10 μM): 0.40
Growth (average percent cell survival relative to the control group) ([3]; γ-tocotrienol 10 μM): 68%
Absorbance (net absorbance at 490 nm, net growth after 72 h) ([3]; γ-tocotrienol 20 μM): 0.33
Growth (average percent cell survival relative to the control group) ([3]; γ-tocotrienol 20 μM): 70%
Absorbance (net absorbance at 490 nm, net growth after 72 h) ([3]; γ-tocotrienol 30 μM): 0.20
Absorbance (net absorbance at 490 nm, net growth after 72 h) ([3]; γ-tocotrienol 40 μM, negative = cell killing): −0.05
IC50 [3]: 20 ± 2 µM
Growth (average percent cell survival relative to the control group) ([4]; γ-tocotrienol 20 μM): 100%
Absorbance (net absorbance at 490 nm, net growth after 72 h) ([4]; γ-tocotrienol 40 μM): 0.36
Absorbance (net absorbance at 490 nm, net growth after 72 h) ([4]; γ-tocotrienol 80 μM): 0.02
IC50 [4]: 39 µM
Growth (average percent cell survival relative to the control group) ([5]; γ-tocotrienol 5 μM): 100%
Growth (average percent cell survival relative to the control group) ([5]; γ-tocotrienol 10 μM): 76%
Growth (average percent cell survival relative to the control group) ([5]; γ-tocotrienol 20 μM): 70%
G2 phase cells [6]: 12.2%
G1 phase cells [6]: 66.7%
S phase cells [6]: 21.1%
Growth (average percent cell survival relative to the control group) ([2]; γ-tocotrienol 5 μM): 73%

CC(=O)O[C@H]1C(=O)[C@@]2(C)[C@H]([C@H](OC(=O)c3ccccc3)[C@]3(O)C[C@H](OC(=O)[C@H](O)[C@@H](NC(=O)c4ccccc4)c4ccccc4)C(C)=C1C3(C)C)[C@]1(OC(C)=O)CO[C@@H]1C[C@@H]2O [Taxol, taxol, reference compound]
Growth (average percent cell survival relative to the control group) ([4]; taxol 2 nM): 97 ± 5%
Growth (average percent cell survival relative to the control group) ([4]; taxol 5 nM): 71 ± 1%

C/C=C(\C)C(=O)OCC=C(C)CCC=C(C)CCC=C(C)C [Farnesyl Tiglate, farnesyl tiglate]
Growth (average percent cell survival relative to the control group) ([2]; farnesyl tiglate 25 μM): 70%
Growth (average percent cell survival relative to the control group) ([2]; farnesyl tiglate 50 μM): 49%

CC(C)=CCCC(C)=CCCC(C)=CCO [Farnesol, farnesol]
Growth (average percent cell survival relative to the control group) ([3]; farnesol 50 μM): 38%
Growth (average percent cell survival relative to the control group) ([3]; farnesol 100 μM): 79 ± 11%
Growth (average percent cell survival relative to the control group) ([4]; farnesol 50 μM): 53 ± 5%
Growth (average percent cell survival relative to the control group) ([4]; farnesol 100 μM): 93 ± 7%
Observed Growth (empirical percentage survival) ([2]; farnesol 12.5 μM): 84%
Observed Growth (empirical percentage survival) ([2]; farnesol 25 μM): 54%

C=C(C)[C@@H]1CC=C(CO)CC1 [Perillyl Alcohol, perillyl alcohol]
Absorbance (net absorbance at 490 nm, net growth after 72 h) ([3]; perillyl alcohol 100 μM): 0.46
Absorbance (net absorbance at 490 nm, net growth after 72 h) ([3]; perillyl alcohol 200 μM): 0.40
Absorbance (net absorbance at 490 nm, net growth after 72 h) ([3]; perillyl alcohol 400 μM): 0.18
Absorbance (net absorbance at 490 nm, net growth after 72 h) [3, 9]: −0.06
Absorbance (net absorbance at 490 nm, net growth after 72 h) ([3]; perillyl alcohol 1600 μM, negative = cell killing): −0.05
IC50 ([3]; Homo sapiens, DU-145): 420 µM
IC50 ([4]; Homo sapiens): 480 µM
Absorbance (net absorbance at 490 nm, net growth after 72 h) ([4]; perillyl alcohol 200 μM): 0.34
Absorbance (net absorbance at 490 nm, net growth after 72 h) ([4]; perillyl alcohol 400 μM): 0.09
Absorbance (net absorbance at 490 nm, net growth after 72 h) ([4]; perillyl alcohol 600 μM): 0.06
Absorbance (net absorbance at 490 nm, net growth after 72 h) [4, 9]: −0.05

O=c1c(-c2ccc(O)cc2)coc2cc(O)cc(O)c12 [Genistein, genistein]
Absorbance (net absorbance at 490 nm, net growth after 72 h) ([3]; genistein 10 μM): 0.53
Growth (average percent cell survival relative to the control group) ([3]; genistein 10 μM): 100% and 93%
Growth (average percent cell survival relative to the control group after 72 h exposure period) [3, 8]: 100%
Absorbance (net absorbance at 490 nm, net growth after 72 h) ([3]; genistein 20 μM): 0.34
Growth (average percent cell survival relative to the control group) ([3]; genistein 20 μM): 97%
Absorbance (net absorbance at 490 nm, net growth after 72 h) ([3]; genistein 40 μM): 0.20
Growth (average percent cell survival relative to the control group) ([3]; genistein 40 μM): 38 ± 10%
IC50 ([3]; Homo sapiens, DU-145): 30 µM
IC50 ([4]; Homo sapiens): 70 ± 17 µM
Growth (average percent cell survival relative to the control group) ([4]; genistein 10 μM): 121 ± 3%
Growth (average percent cell survival relative to the control group) ([4]; genistein 20 μM): 87% and 95 ± 4%
Growth (average percent cell survival relative to the control group) ([4]; genistein 40 μM): 78% and 74 ± 11% and 84 ± 2%
Absorbance (net absorbance at 490 nm, net growth after 72 h) ([4]; genistein 10 μM): 0.43
Absorbance (net absorbance at 490 nm, net growth after 72 h) ([4]; genistein 20 μM): 0.39
Absorbance (net absorbance at 490 nm, net growth after 72 h) ([4]; genistein 40 μM): 0.32
Growth (average percent cell survival relative to the control group) ([5]; genistein 10 μM): 100%
Growth (average percent cell survival relative to the control group) ([5]; genistein 20 μM): 70% and 99%
G2 phase cells [6]: 15.8%
G1 phase cells [6]: 64.9%
S phase cells [6]: 19.3%
G2 phase cells [1]: 10.8%
S phase cells [1]: 21.7%
G1 phase cells [1]: 67.6%
Growth (average percent cell survival relative to the control group) ([2]; genistein 5 μM): 83%
Observed Growth (empirical percentage survival) ([2]; genistein 5.0 μM): 63%
Growth (average percent cell survival relative to the control group after 72 h exposure period) [2, 7]: 73%

CC[C@H](C)C(=O)O[C@H]1C[C@@H](C)C=C2C=C[C@H](C)[C@H](CC[C@@H]3C[C@@H](O)CC(=O)O3)[C@H]21 [Lovastatin, [1S-[1α(R*),3α,7β,8β(2S*,4S*), 8a.β.]]-2-methylbutanoic acid 1,2,3,7,8,8a-hexahydro-3,7-dimethyl-8-[2-(tetrahydro-4-hydroxy-6-oxo-2H-pyran-2-yl)ethyl]-1-naphthalenyl ester, reference compound]
Growth (average percent cell survival relative to the control group after 72 h exposure period) [3, 8]: 100%
Growth (average percent cell survival relative to the control group) ([3]; lovastatin 3 μM): 100%
Growth (average percent cell survival relative to the control group) ([3]; lovastatin 3.0 μM): 100%
Absorbance (net absorbance at 490 nm, net growth after 72 h) ([3]; lovastatin 4 μM): 0.37
Absorbance (net absorbance at 490 nm, net growth after 72 h) ([3]; lovastatin 8 μM): 0.30
Absorbance (net absorbance at 490 nm, net growth after 72 h) ([3]; lovastatin 16 μM): 0.18
Absorbance (net absorbance at 490 nm, net growth after 72 h) ([3]; lovastatin 32 μM): 0.15
IC50 ([3]; Homo sapiens, DU-145): 18 ± 2 µM
IC50 ([4]; Homo sapiens): 2.2 ± 0.5 µM
Growth (average percent cell survival relative to the control group) ([4]; lovastatin 0.75 μM): 87 ± 3%
Absorbance (net absorbance at 490 nm, net growth after 72 h) ([4]; lovastatin 1 μM): 0.32
Absorbance (net absorbance at 490 nm, net growth after 72 h) ([4]; lovastatin 2 μM): 0.10
Absorbance (net absorbance at 490 nm, net growth after 72 h) ([4]; lovastatin 4 μM, negative = cell killing): −0.02
Growth (average percent cell survival relative to the control group) ([5]; lovastatin 3 μM): 100%
Growth (average percent cell survival relative to the control group) ([5]; lovastatin 3.0 μM): 100%
G2 phase cells [6]: 15.7%
G1 phase cells [6]: 62.0%
S phase cells [6]: 22.3%
G2 phase cells [1]: 9.3%
S phase cells [1]: 22.2%
G1 phase cells [1]: 68.5%
Growth (average percent cell survival relative to the control group after 72 h exposure period) [2, 7]: 71%
Growth (average percent cell survival relative to the control group) ([2]; lovastatin 0.5 μM): 100%
Growth (average percent cell survival relative to the control group) ([2]; lovastatin 1.0 μM): 83%
Growth (average percent cell survival relative to the control group) ([2]; lovastatin 3.0 μM): 42%
